Laboratory results: patent publication US20110015164A1, “METHOD OF TREATING MEN WITH METABOLIC AND ANTH[…]” (priority 2004, published 2011)

Tested on: men with abdominal obesity, low to low-normal serum total testosterone levels and the metabolic syndrome
Assay: Placebo-controlled treatment study in abdominally obese men with low to low-normal testosterone and the metabolic syndrome
Settings: for increasing insulin sensitivity, treatment group relative to placebo / lowering triglycerides, treatment group relative to placebo / reducing visceral adipose tissue, treatment group relative to placebo: end of treatment
Procedure: (§1) Approximately 200 men are recruited with abdominal obesity (waist circumference >102 cm), low to low-normal serum total testosterone levels (<450 ng/dL), and the metabolic syndrome per NCEP criteria. NCEP criteria for diagnosis of the metabolic syndrome in men includes 3 of the following 5 components: Fasting glucose≧110 mg/dL, TG≧150 mg/dL, low HDL-C (<40 mg/dL), high waist circumference (>102 cm), BP≧130/≧85 mmHg. Since the study design calls for inclusion of abdominally obese men with waist circumference >102 cm, patients have at least 2 of the other 4 criteria to satisfy the NCEP criteria for the metabolic syndrome. Patients are randomized to placebo or treatment. Fasting blood samples are taken.
Periodic measurements of insulin/glycemic response to oral glucose tolerance test (OGTT) and insulin sensitivity index, fasting plasma glucose (FPG), fasting lipid profile (includes triglycerides, total cholesterol, low-density lipoprotein cholesterol, non-high-density lipoprotein cholesterol, high-density lipoprotein cholesterol, and free fatty acids), visceral fat mass, and blood pressure are taken.
as §1, with “taken. After a placebo run in, the treatment group receives daily administration of 0.5 mg N-(2,5-bis-trifluoromethyl-phenyl)-3-oxo-4-aza-4-methyl-5α-androst-1-ene-17β-carboxamide (dutasteride).” for “taken.”
as §1, with “glucose ≧110” for “glucose≧110”, “taken. After a placebo run in, the treatment group receives daily administration of N-(2-trifluoromethyl-phenyl)-3-oxo-4-aza-4-methyl-5α-androst-1-ene-17β-carboxamide.” for “taken.”
as §1, with “(≦450” for “(<450”, “glucose ≧110” for “glucose≧110”

[1] = Example 6: daily administration (dose not given)

Cc1ccc(O[C@H]2C[C@H]3[C@@H]4[C@@H](C)C[C@H]5NC(=O)C=C[C@]5(C)[C@H]4CC[C@]3(C)C2)cc1 [3-oxo-4-aza-7β-methyl-16β-(4-methylphenoxy)-5α-androst-1-ene]
tolerability of the treatment (Example 7: 25 mg daily): well tolerated | increasing insulin sensitivity, treatment group relative to placebo (Example 7: 25 mg daily): significant improvement | lowering triglycerides, treatment group relative to placebo (Example 7: 25 mg daily): significant improvement | reducing visceral adipose tissue, treatment group relative to placebo (Example 7: 25 mg daily): significant improvement

CN1C(=O)C=C[C@]2(C)[C@H]3CC[C@]4(C)[C@@H](C(=O)Nc5ccccc5C(F)(F)F)CC[C@H]4[C@@H]3CC[C@@H]12 [N-(2-trifluoromethyl-phenyl)-3-oxo-4-aza-4-methyl-5α-androst-1-ene-17β-carboxamide]
tolerability of the treatment [1]: well tolerated | increasing insulin sensitivity, treatment group relative to placebo [1]: significant improvement | lowering triglycerides, treatment group relative to placebo [1]: significant improvement | reducing visceral adipose tissue, treatment group relative to placebo [1]: significant improvement
